Measured values reported in patent US20260034222A1, “HYDROGEL COMPOSITION FOR THE TREATMENT OF PERITONEAL DISEASES” (UPyTher B.V., priority 2023, published 2026).

Assays:
[1] = in vivo; cited from earlier work
tumor cell lines = conditions: cited from earlier work
[2] = Drug release from thermoreversible RTGel hydrogel; assay type: physicochemical; conditions: 0.4 mM, PBS pH 7.4 (FIG. 10)
Protocol: RTGel hydrogel was formulated using the following ingredients and quantities:
(§1) Mitomycin C and chol-MMC were loaded from a stock solution (30 mM in DMSO) to 0.4 mM in the hydrogel solution. The drug loaded solution (100 μL) was cooled and transferred to a Millicell insert, which was placed in a 24-wells plate filled with PBS pH 7.4 (600 μL). At set time points the PBS was refreshed and the removed PBS was analyzed for drug content UV absorbance at 363 nm. Release experiments were performed with n=3.

[3] = Mitomycin C release from UPy-PEG hydrogels; assay type: physicochemical
Protocol: as §1, with “was” for “and chol-MMC were”, “(52” for “(30”, “0.52” for “0.4”, “was” for “was cooled and”

[4] = system: mice with peritoneal metastases; conditions: intraperitoneal lavage for 90 minutes versus 60 minutes; cited from earlier work
patients = conditions: dosing regimens of 35 mg/m2; cited from earlier work
[5] = in words; cited from earlier work
[6] = Mitomycin C and VX970 combined release from hydrogel; assay type: physicochemical; conditions: Polymer 7, 5 wt %, 12 μg/ml VX970 with 0.52 mM MMC (FIG. 7)
Protocol: Mitomycin C (MMC) was loaded from a stock solution (52 mM in DMSO) to 0.52 mM in the hydrogel solution. VX970 was loaded from a stock solution (1.2 mg/ml in DMSO) to 12 μg/ml. The drug loaded solution (100 μL) was transferred to a Millicell insert, which was placed in a 24-wells plate filled with PBS pH 7.4 (700 μL). At set time points the PBS was refreshed and the removed PBS was analyzed for MMC content by UV absorbance at 363 nm. For VX970, a HPLC-MS/MS method was used (Kiesel et al.). Release experiments were performed with n=3.

[7] = TLR-agonist release from UPy-PEG hydrogels; assay type: physicochemical; conditions: Polymer 6, 6 and 10 wt %, 0.5 mM MEDI9197 (FIG. 11B)
Protocol: The TLR-agonist resiquimod (synonym R848) was loaded from a stock solution (50 mM in DMSO) to 1.27 mM in the hydrogel. The TLR-agonist telratolimod (synonym MEDI9197) was loaded from a stock solution (10 mM in DMSO) to 0.5 mM in the hydrogel.
The drug loaded solution (100 μL) was transferred to a Millicell insert, which was placed in a 24-wells plate filled with PBS pH 7.4 (700 μL). At set time points the PBS was refreshed and the removed PBS was analyzed for R848 content UV absorbance at 320 nm. For MEDI9197, PBS was substituted for a volatile ammonium carbonate buffer and a HPLC-MS method was used. Release experiments were performed with n=3.

CO[C@@]12[C@H](COC(N)=O)C3=C(C(=O)C(C)=C(N)C3=O)N1C[C@@H]1N[C@@H]12 [Mitomycin C]
half-life in the peritoneal cavity [1]: 1 to 1.5 h
concentration required to kill 90% of the cells (tumor cell lines; exposure time more than 10 hours): 0.1 µg/mL
concentration needed to kill 90% of the cells in culture (tumor cell lines; exposure time shorter than one hour): 5 µg/mL
time of release from Pluronic-based RTGel hydrogel [2]: 1 to 2 days
duration of sustained mitomycin C release ([3]; polymer 6, 6, 7, 8 wt %, 0.52 mM, PBS pH 7.4 (FIG. 6)): 1 to 2 days
dependence of drug release on polymer density ([3]; polymer 6, 6, 7 or 8 wt %): not dependent on the polymer density
effect of higher precursor pH on burst release ([3]; polymer 6, precursor pH 8.5, 9.0 or 9.5): did not give rise to an increased burst release
survival [4]: better survival
patients who developed severe bone marrow suppression (patients): 28%

CNCc1ccc(-c2cc(-c3nc(-c4ccc(S(=O)(=O)C(C)C)cc4)cnc3N)on2)cc1 [VX-970, berzosertib]
solubility in water [5]: insoluble in water
release rate relative to MMC [6]: released slower than MMC

CC(=O)O[C@H]1C(=O)[C@@]2(C)[C@H]([C@H](OC(=O)c3ccccc3)[C@]3(O)C[C@H](OC(=O)[C@H](O)[C@@H](NC(=O)c4ccccc4)c4ccccc4)C(C)=C1C3(C)C)[C@]1(OC(C)=O)CO[C@@H]1C[C@@H]2O [paclitaxel]
clearance from the peritoneal cavity [1]: cleared in less than day

CCCCCCCCCCCCCCCCCC(=O)NCCCCOn1c(CCCC)nc2c(N)nc3ccccc3c21 [MEDI9197, telratolimod]
release rate relative to comparator [7]: released slower than MMC

CC(=O)O[C@@]12CO[C@@H]1C[C@H](O)[C@@]1(C)C(=O)[C@H](O)C3=C(C)[C@@H](OC(=O)[C@H](O)[C@@H](NC(=O)OC(C)(C)C)c4ccccc4)C[C@@](O)([C@@H](OC(=O)c4ccccc4)[C@H]21)C3(C)C [docetaxel]
clearance from the peritoneal cavity [1]: cleared in less than day
